Experimental data taken from patent publication US12673975B2, “Cyclic peptide, cell scaffold material, cell separating material, and medium” (FUJIFILM Corporation, priority 2019, dated 2026).
Like-named read-outs stand apart in the source and are kept apart here. Starred links: 1 amine or outer side, 2 acyl side, 3 side chain; linkers in the order of their positions; H or OH if unused. Positions of bridges follow the written chain, without caps; N, C: chain ends. Non-standard residues stand in square brackets, D forms with d. Residues, ends and D or L forms follow the SMILES beside them. Pen = CC(C)(S)[C@H](N)C(=O)O; hCys = N[C@@H](CCS)C(=O)O; Dab = NCC[C@H](N)C(=O)O; Dap = NC[C@H](N)C(=O)O; X1 = O=C(C[*:2])[*:1]; X2 = O=C(C[*:1])[*:2]

Legend:
[1] = Evaluation of molecule stability (alkali treatment, residual rate by LC/MS); assay type: physicochemical; settings: for Stability (molecule stability, residual rate of the cyclic peptide rank): alkali treatment, residual rate by LC/MS; for Performance evaluation: Stability (residual rate of cyclic peptide after alkali treatment): 500 μM peptide aqueous solution plus equivalent of 1 M sodium hydroxide, 15° C., 3 hours, LC/MS peak area
In short: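 500 μM aqueous cyclic peptide mixed with an equal volume of 1 M NaOH and held 3 h at 15 °C. Residual rate is total LC/MS peak area after treatment relative to untreated (100%), using a C18 column, pH 3 ammonium formate/acetonitrile gradient, 45 °C, ESI±.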

[2] = biological target: human integrin αvβ5 (Homo sapiens, UniProt P06756+P18084); test: Evaluation of integrin binding property (surface plasmon resonance, Biacore 3000, immobilized cyclic peptide)
In short: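 SPR with cyclic peptide amine-coupled via EDC/NHS to a CM5 chip, blank channel as reference. Integrin αvβ5 at 30, 100, 300 and 1,000 nM injected 10 min at 25 °C in HEPES buffer pH 7.4 with 5 mM MgCl2, 30 min buffer flow, EDTA regeneration; Kd from reference-subtracted signals, graded by category.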

[3] = surface plasmon resonance, immobilized cyclic peptide, human integrin αvβ5, read-out: Binding activity (integrin binding property, dissociation constant rank)
[4] = SPR, 25° C., HEPES buffer with 5 mM magnesium chloride, integrin 30-1,000 nM, read-out: Performance evaluation: Binding activity (dissociation constant between the cyclic peptide and human integrin αvβ5)

Chain of human integrin αvβ5 (P06756 31-1048): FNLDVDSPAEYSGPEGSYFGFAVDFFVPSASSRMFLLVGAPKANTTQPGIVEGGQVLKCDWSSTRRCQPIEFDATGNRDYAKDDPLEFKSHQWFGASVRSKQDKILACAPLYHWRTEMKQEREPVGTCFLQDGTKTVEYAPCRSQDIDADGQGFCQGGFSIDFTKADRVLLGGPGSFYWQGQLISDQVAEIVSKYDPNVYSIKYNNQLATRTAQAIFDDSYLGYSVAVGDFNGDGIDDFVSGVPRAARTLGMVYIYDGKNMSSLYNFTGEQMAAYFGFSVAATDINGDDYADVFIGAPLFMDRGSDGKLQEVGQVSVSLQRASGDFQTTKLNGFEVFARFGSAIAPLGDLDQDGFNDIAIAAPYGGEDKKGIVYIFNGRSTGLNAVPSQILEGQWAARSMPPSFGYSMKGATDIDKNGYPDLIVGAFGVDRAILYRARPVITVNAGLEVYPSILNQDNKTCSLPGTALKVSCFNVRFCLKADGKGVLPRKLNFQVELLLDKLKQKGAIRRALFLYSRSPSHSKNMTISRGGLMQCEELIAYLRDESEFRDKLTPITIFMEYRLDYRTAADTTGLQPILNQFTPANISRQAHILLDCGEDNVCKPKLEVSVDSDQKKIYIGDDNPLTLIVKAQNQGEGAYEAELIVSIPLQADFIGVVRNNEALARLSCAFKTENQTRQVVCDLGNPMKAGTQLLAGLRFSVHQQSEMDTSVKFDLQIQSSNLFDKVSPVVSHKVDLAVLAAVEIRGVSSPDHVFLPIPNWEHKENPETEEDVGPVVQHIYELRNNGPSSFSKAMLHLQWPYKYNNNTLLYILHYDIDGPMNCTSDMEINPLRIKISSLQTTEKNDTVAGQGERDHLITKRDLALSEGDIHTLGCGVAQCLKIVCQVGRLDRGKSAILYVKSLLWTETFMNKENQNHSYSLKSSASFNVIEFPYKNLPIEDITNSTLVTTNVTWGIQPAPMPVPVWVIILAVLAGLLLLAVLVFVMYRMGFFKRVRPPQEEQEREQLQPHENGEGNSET
Chain of human integrin αvβ5 (P18084 24-799): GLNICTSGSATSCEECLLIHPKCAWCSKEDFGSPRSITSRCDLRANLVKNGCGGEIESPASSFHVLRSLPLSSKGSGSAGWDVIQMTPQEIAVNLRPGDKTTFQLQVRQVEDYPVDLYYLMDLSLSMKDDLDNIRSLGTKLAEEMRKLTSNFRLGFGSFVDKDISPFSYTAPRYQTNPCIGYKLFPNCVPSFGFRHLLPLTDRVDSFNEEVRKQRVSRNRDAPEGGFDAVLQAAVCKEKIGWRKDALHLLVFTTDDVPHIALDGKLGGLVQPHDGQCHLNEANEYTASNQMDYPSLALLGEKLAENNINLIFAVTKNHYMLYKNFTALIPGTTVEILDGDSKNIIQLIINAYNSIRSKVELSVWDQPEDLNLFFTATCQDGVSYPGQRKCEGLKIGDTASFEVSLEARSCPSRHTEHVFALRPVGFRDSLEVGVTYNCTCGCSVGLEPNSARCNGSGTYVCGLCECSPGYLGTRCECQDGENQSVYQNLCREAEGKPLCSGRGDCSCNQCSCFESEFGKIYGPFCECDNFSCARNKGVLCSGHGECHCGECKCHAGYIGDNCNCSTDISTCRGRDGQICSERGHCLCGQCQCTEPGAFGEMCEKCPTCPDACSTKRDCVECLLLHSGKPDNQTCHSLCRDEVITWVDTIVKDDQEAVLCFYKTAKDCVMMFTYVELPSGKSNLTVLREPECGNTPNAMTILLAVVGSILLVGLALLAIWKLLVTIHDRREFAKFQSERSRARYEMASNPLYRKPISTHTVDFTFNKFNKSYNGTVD

Kd [2, 3] | Kd [2, 4] | SMILES | Stability (molecule stability, residual rate of the cyclic peptide rank) [1] | Performance evaluation: Stability (residual rate of cyclic peptide after alkali treatment) [1]
< 50 nM |  | CC[C@H](C)[C@@H]1NC(=O)[C@@H](NC(=O)CNC(=O)[C@H](CCCCN)NC(=O)[C@H](CCCCN)NC(=O)[C@@H](N)CCCCN)CNC(=O)CSC(C)(C)[C@@H](C(=O)N[C@@H](C)C(=O)O)NC(=O)[C@H](CCCNC(=N)N)NC(=O)[C@H](Cc2ccccc2)NC(=O)[C@H]([C@@H](C)O)NC(=O)[C@H](CC(=O)O)NC(=O)CNC(=O)[C@H](CCCNC(=N)N)NC(=O)[C@@H]2CCCN2C1=O [Cyclic peptide 132, KKKG(Dap(acetyl))IPRGDTFR-(Pen)-A] (H-KKKG[Dap]IPRGDTFR[Pen]A-OH; linker 5-14 via X1) | A (The residual rate of the cyclic peptide is 70% or more.) | 
50 to 100 nM |  | CC[C@H](C)[C@@H]1NC(=O)[C@@H](NC(=O)CNC(=O)[C@H](CCCCN)NC(=O)[C@H](CCCCN)NC(=O)[C@@H](N)CCCCN)CCNC(=O)CSC[C@@H](C(=O)N[C@@H](C)C(=O)O)NC(=O)[C@H](CCCNC(=N)N)NC(=O)[C@H](Cc2ccccc2)NC(=O)[C@H]([C@@H](C)O)NC(=O)[C@H](CC(=O)O)NC(=O)CNC(=O)[C@H](CCCNC(=N)N)NC(=O)[C@@H]2CCCN2C1=O [Cyclic peptide 138, KKKG(Dab(acetyl))IPRGDTFR(C)A] (H-KKKG[Dab]IPRGDTFRCA-OH; linker 5-14 via X1) | C (The residual rate of the cyclic peptide is 30% or more and less than 50%.) | 
< 50 nM |  | CC[C@H](C)[C@@H]1NC(=O)[C@@H](NC(=O)[C@H](C)NC(=O)[C@H](CCCCN)NC(=O)[C@H](CCCCN)NC(=O)[C@@H](N)CCCCN)CCSCC(=O)NCCCC[C@@H](C(=O)N[C@@H](C)C(=O)O)NC(=O)[C@H](C)NC(=O)[C@H](Cc2ccccc2)NC(=O)[C@H](CO)NC(=O)[C@H](CC(=O)O)NC(=O)CNC(=O)[C@H](CCCNC(=N)N)NC(=O)[C@@H]2CCCN2C1=O [Cyclic peptide 123, KKKA-(Hcy)-IPRGDSFA(Lys(acetyl))A] (H-KKKA[hCys]IPRGDSFAKA-OH; linker 5-14 via X2) | A (The residual rate of the cyclic peptide is 70% or more.) | 
 | < 50 nM | CC[C@H](C)[C@@H]1NC(=O)[C@@H](NC(=O)[C@H](CCCCN)NC(=O)[C@H](CCCCN)NC(=O)[C@@H](N)CCCCN)CCSCC(=O)NCC[C@@H](C(=O)N[C@@H](C)C(=O)O)NC(=O)[C@H](CCCNC(=N)N)NC(=O)[C@H](Cc2ccccc2)NC(=O)[C@H]([C@@H](C)O)NC(=O)[C@H](CC(=O)O)NC(=O)CNC(=O)[C@H](CCCNC(=N)N)NC(=O)[C@@H]2CCCN2C1=O [Cyclic peptide 57, KKK-(Hcy)-IPRGDTFR(Dab(acetyl))A] (H-KKK[hCys]IPRGDTFR[Dab]A-OH; linker 4-13 via X2) |  | A (The residual rate of the cyclic peptide is 70% or more.)
< 50 nM |  | CC(C)[C@@H]1NC(=O)[C@@H](NC(=O)[C@H](C)NC(=O)[C@H](CCCCN)NC(=O)[C@H](CCCCN)NC(=O)[C@H](CCCCN)NC(=O)[C@H](CCCCN)NC(=O)[C@@H](N)CCCCN)CCSCC(=O)NCC[C@@H](C(=O)N[C@@H](C)C(=O)O)NC(=O)[C@H](C)NC(=O)[C@H](Cc2ccccc2)NC(=O)[C@H]([C@@H](C)O)NC(=O)[C@H](CC(=O)O)NC(=O)CNC(=O)[C@H](CCCNC(=N)N)NC(=O)[C@@H]2CCCN2C1=O [Cyclic peptide 111, KKKKKA-(Hcy)-VPRGDTFA(Dab(acetyl))A] (H-KKKKKA[hCys]VPRGDTFA[Dab]A-OH; linker 7-16 via X2) | A (The residual rate of the cyclic peptide is 70% or more.) | 
 | < 50 nM | C[C@H](NC(=O)[C@@H]1CCNC(=O)CSCC[C@H](NC(=O)[C@H](CCCCN)NC(=O)[C@H](CCCCN)NC(=O)[C@@H](N)CCCCN)C(=O)N[C@@H](Cc2ccc(O)cc2)C(=O)N2CCC[C@H]2C(=O)N[C@@H](CCCNC(=N)N)C(=O)NCC(=O)N[C@@H](CC(=O)O)C(=O)N[C@@H](CC(N)=O)C(=O)N[C@@H](Cc2ccccc2)C(=O)N[C@@H](CCCNC(=N)N)C(=O)N1)C(=O)O [Cyclic peptide 24, KKK-(Hcy)-YPRGDNFR(Dab(acetyl))A] (H-KKK[hCys]YPRGDNFR[Dab]A-OH; linker 4-13 via X2) |  | A (The residual rate of the cyclic peptide is 70% or more.)
< 50 nM |  | C[C@@H]1NC(=O)[C@H](Cc2ccccc2)NC(=O)[C@H]([C@@H](C)O)NC(=O)[C@H](CC(=O)O)NC(=O)CNC(=O)[C@H](CCCNC(=N)N)NC(=O)[C@H]([C@@H](C)O)NC(=O)[C@H]([C@@H](C)O)NC(=O)[C@@H](NC(=O)[C@H](CCCCN)NC(=O)[C@H](CCCCN)NC(=O)[C@@H](N)CCCCN)CCSCC(=O)NCC[C@@H](C(=O)O)NC1=O [Cyclic peptide 155, KKK-(Hcy)-TTRGDTFA(Dab(acetyl))] (H-KKK[hCys]TTRGDTFA[Dab]-OH; linker 4-13 via X2) | A (The residual rate of the cyclic peptide is 70% or more.) | 
< 50 nM |  | CC(C)[C@@H]1NC(=O)[C@@H](NC(=O)[C@H](C)NC(=O)[C@H](CCCCN)NC(=O)[C@H](CCCCN)NC(=O)[C@@H](N)CCCCN)CCSCC(=O)NCCCC[C@@H](C(=O)N[C@@H](C)C(=O)O)NC(=O)[C@H](C)NC(=O)[C@H](Cc2ccccc2)NC(=O)[C@H]([C@@H](C)O)NC(=O)[C@H](CC(=O)O)NC(=O)CNC(=O)[C@H](CCCNC(=N)N)NC(=O)[C@@H]2CCCN2C1=O [Cyclic peptide 121, KKKA-(Hcy)-VPRGDTFA(Lys(acetyl))A] (H-KKKA[hCys]VPRGDTFAKA-OH; linker 5-14 via X2) | A (The residual rate of the cyclic peptide is 70% or more.) | 
< 50 nM |  | C[C@@H]1NC(=O)[C@H](Cc2ccccc2)NC(=O)[C@H]([C@@H](C)O)NC(=O)[C@H](CC(=O)O)NC(=O)CNC(=O)[C@H](CCCNC(=N)N)NC(=O)[C@@H]2CCCN2C(=O)[C@H]([C@@H](C)O)NC(=O)[C@@H](NC(=O)[C@H](CCCCN)NC(=O)[C@H](CCCCN)NC(=O)[C@@H](N)CCCCN)CCSCC(=O)NCC[C@@H](C(=O)O)NC1=O [Cyclic peptide 147, KKK-(Hcy)-TPRGDTFA(Dab(acetyl))] (H-KKK[hCys]TPRGDTFA[Dab]-OH; linker 4-13 via X2) | A (The residual rate of the cyclic peptide is 70% or more.) | 
 | < 50 nM | CC[C@H](C)[C@@H]1NC(=O)[C@@H](NC(=O)CNC(=O)[C@H](CCCCN)NC(=O)[C@H](CCCCN)NC(=O)[C@@H](N)CCCCN)CCSCC(=O)NCC[C@@H](C(=O)N[C@@H](C)C(=O)O)NC(=O)[C@H](C)NC(=O)[C@H](Cc2ccccc2)NC(=O)[C@H]([C@@H](C)O)NC(=O)[C@H](CC(=O)O)NC(=O)CNC(=O)[C@H](CCCNC(=N)N)NC(=O)[C@@H]2CCCN2C1=O [Cyclic peptide 86, KKKG-(Hcy)-IPRGDTFA(Dab(acetyl))A] (H-KKKG[hCys]IPRGDTFA[Dab]A-OH; linker 5-14 via X2) |  | A (The residual rate of the cyclic peptide is 70% or more.)
< 50 nM |  | CC(C)[C@@H]1NC(=O)[C@@H](NC(=O)[C@H](C)NC(=O)[C@H](CCCCN)NC(=O)[C@H](CCCCN)NC(=O)[C@@H](N)CCCCN)CCNC(=O)CSC(C)(C)[C@@H](C(=O)N[C@@H](C)C(=O)O)NC(=O)[C@H](C)NC(=O)[C@H](Cc2ccccc2)NC(=O)[C@H]([C@@H](C)O)NC(=O)[C@H](CC(=O)O)NC(=O)CNC(=O)[C@H](CCCNC(=N)N)NC(=O)[C@@H]2CCCN2C1=O [Cyclic peptide 136, KKKA(Dab(acetyl))VPRGDTFA-(Pen)-A] (H-KKKA[Dab]VPRGDTFA[Pen]A-OH; linker 5-14 via X1) | A (The residual rate of the cyclic peptide is 70% or more.) | 
 | < 50 nM | CC[C@H](C)[C@@H]1NC(=O)[C@@H](NC(=O)[C@H](C)NC(=O)[C@H](CCCCN)NC(=O)[C@H](CCCCN)NC(=O)[C@@H](N)CCCCN)CCSCC(=O)NCC[C@@H](C(=O)NCC(=O)O)NC(=O)[C@H](C)NC(=O)[C@H](Cc2ccccc2)NC(=O)[C@H]([C@@H](C)O)NC(=O)[C@H](CC(=O)O)NC(=O)CNC(=O)[C@H](CCCNC(=N)N)NC(=O)[C@@H]2CCCN2C1=O [Cyclic peptide 85, KKKA-(Hcy)-IPRGDTFA(Dab(acetyl))G] (H-KKKA[hCys]IPRGDTFA[Dab]G-OH; linker 5-14 via X2) |  | A (The residual rate of the cyclic peptide is 70% or more.)
 | 50 to 100 nM | CC[C@H](C)[C@@H]1NC(=O)[C@@H](NC(=O)[C@H](C)NC(=O)[C@H](CCCCN)NC(=O)[C@H](CCCCN)NC(=O)[C@@H](N)CCCCN)CCSCC(=O)NCC[C@@H](C(=O)N[C@@H](C)C(=O)O)NC(=O)[C@H](CCCNC(=N)N)NC(=O)[C@H](Cc2ccc(O)cc2)NC(=O)[C@H]([C@@H](C)O)NC(=O)[C@H](CC(=O)O)NC(=O)CNC(=O)[C@H](CCCNC(=N)N)NC(=O)[C@@H]2CCCN2C1=O [Cyclic peptide 81, KKKA-(Hcy)-IPRGDTYR(Dab(acetyl))A] (H-KKKA[hCys]IPRGDTYR[Dab]A-OH; linker 5-14 via X2) |  | A (The residual rate of the cyclic peptide is 70% or more.)
